Data as given in ChEMBL document CHEMBL5338722, “Optical-Controlled Kinetic Switch: Fine-Tuning of the Residence Time of an Antagonist Binding to the Vasopressin V2 Receptor in In Vitro, Ex Vivo, and In Vivo Models of ADPKD” (J Med Chem, 2023).
One block for each molecule: values may come before it. Activity calls are given as the source filed them. No cut-off for these calls is given here.

Assays:
[1] = target: T1, Vasopressin V2 receptor (Homo sapiens, UniProt P30518); assay: Displacement of conivaptan-red fluorescent probe from SNAP-tagged human vasopressin V2 receptor expressed in HEK293 cells compound pre-illuminated for 10 mins with light at 435 nm and further incubated for 1 hr by HTRF assay; type: cell-based
[2] = tested on: Kidney; assay: Ex vivo target occupancy at vasopressin V2 receptor in Sprague-Dawley rat kidney assessed as endurance in retention time by measuring half life at 0.1 uM treated for 30 mins followed by extensive drug wash-out for 240 mins by LC-MS analysis; type: functional, tissue-based
[3] = target: T1, Vasopressin V2 receptor; assay: (§1) Antagonist activity at human vasopressin V2 receptor expressed in CHO cells assessed as inhibition of vasopressin induced cAMP production at 10 times Ki preincubated for 30 mins followed by two consecutive washouts and irradiated with light at 365 nm in first 30 mins of washout and with light at 435 nm in second 30 mins of washout; type: functional, cell-based
[4] = target: T1, Vasopressin V2 receptor; assay: (§2) Displacement of conivaptan-red fluorescent probe from SNAP-tagged human vasopressin V2 receptor expressed in HEK293 cells assessed as off-rate constant at 0.1 uM compound pre-illuminated for 10 mins with light at 365 nm by dual-point competition association assay; type: cell-based; conditions: filed as antagonist
[5] = target: T1, Vasopressin V2 receptor; assay: as §1, with “vasopressin-induced” for “vasopressin induced”, “435” for “365”, “365” for “435”; type: functional, cell-based; conditions: filed as antagonist
[6] = target: Serine/threonine-protein kinase mTOR (Homo sapiens) (UniProt P42345); assay: (§3) Inhibition of mTOR (unknown origin) assessed as inhibition of p70S6K phosphorylation at 10 times Ki preincubated for 30 mins followed by two consecutive washouts and irradiated with light at 435 nm in first 30 mins of washout and with light at 365 nm in second 30 mins of washout by Western blot analysis
[7] = tested on: Mus musculus; assay: (§4) In vivo inhibition of renal cystogenesis in Pkd1 knock-out autosomal dominant polycystic kidney disease mouse model assessed as reduction in kidney size with fewer cysts at 5 mg/kg, sc administered once daily for 7 days compound pre-irradiated with light at 365 nm prior to administration by Hematoxylin-eosin staining based analysis; type: functional, organism-based; conditions: time 7.0 day
[8] = tested on: Mus musculus; assay: as §4, with “in” for “in kidney size with fewer”, “cysts area” for “cysts”; type: functional, organism-based; conditions: time 7.0 day
[9] = target: T1, Vasopressin V2 receptor; assay: as §2, with “kinetic rate index by measuring ratio of binding of labeled probe” for “off-rate constant”, “15 mins to 60 mins at IC50” for “0.1 uM”; type: cell-based; conditions: filed as antagonist
[10] = target: Serine/threonine-protein kinase mTOR (Homo sapiens) (UniProt P42345); assay: Inhibition of mTOR (unknown origin) assessed as inhibition of p70S6K phosphorylation at 10 times Ki preincubated for 30 mins followed by two consecutive washouts and irradiated with light at 365 nm during two washouts by Western blot analysis
[11] = target: Serine/threonine-protein kinase mTOR (Homo sapiens) (UniProt P42345); assay: as §3, with “365” for “435”, “435” for “365”
[12] = target: T1, Vasopressin V2 receptor; assay: Displacement of conivaptan-red fluorescent probe from SNAP-tagged human vasopressin V2 receptor expressed in HEK293 cells assessed as on-rate constant at 0.1 uM compound pre-illuminated for 10 mins with light at 365 nm by dual-point competition association assay; type: cell-based; conditions: filed as antagonist
[13] = target: Serine/threonine-protein kinase mTOR (Homo sapiens) (UniProt P42345); assay: Inhibition of mTOR (unknown origin) assessed as inhibition of p70S6K phosphorylation at 10 times Ki preincubated for 30 mins followed by two consecutive washouts and irradiated with light at 435 nm during two washouts by Western blot analysis
[14] = target: T1, Vasopressin V2 receptor; assay: Antagonist activity at human vasopressin V2 receptor expressed in CHO cells assessed as inhibition of cAMP production; type: functional, cell-based; conditions: filed as antagonist
[15] = target: T1, Vasopressin V2 receptor; assay: as §2, with “leftward shift in competition curve” for “off-rate constant”, “nm and measured for 10 to 60 mins” for “nm”; type: cell-based; conditions: filed as antagonist, time 10-60 min
[16] = target: Vasopressin V1a receptor (Homo sapiens) (UniProt P37288); assay: Displacement of [3H]vasopressin from human V1A receptor expressed in CHO cell membranes at 1 uM compound pre-illuminated for 10 mins with light at 365 nm by radioligand displacement assay relative to control; conditions: Membrane
[17] = target: T1, Vasopressin V2 receptor; assay: Antagonist activity at human vasopressin V2 receptor expressed in CHO cells assessed as inhibition of AVP-induced cAMP production at 1 uM preincubated for 30 mins followed by two consecutive washouts and irradiated with light at 365 nm during two washouts; type: functional, cell-based; conditions: filed as antagonist
[18] = target: T1, Vasopressin V2 receptor; assay: Antagonist activity at human vasopressin V2 receptor expressed in CHO cells assessed as inhibition of vasopressin induced cAMP production at 10 times Ki preincubated for 30 mins followed by two consecutive washouts and irradiated with light at 435 nm during two washouts; type: functional, cell-based
[19] = tested on: Kidney; assay: Ex vivo inhibition of renal cystogenesis in ADPKD C57BL/6 mouse kidney assessed as suppression of 8-Br-cAMP-induced cyst development at 10 uM measured after 4 days in presence of 8-Br-cAMP by inverted microscopic analysis; type: functional, tissue-based; conditions: time 4.0 day
[20] = target: T1, Vasopressin V2 receptor; assay: Displacement of conivaptan-red fluorescent probe from SNAP-tagged human vasopressin V2 receptor expressed in HEK293 cells assessed as residence time at 0.1 uM compound pre-illuminated for 10 mins with light at 365 nm by dual-point competition association assay; type: cell-based; conditions: filed as antagonist
[21] = tested on: Mus musculus; assay: In vivo inhibition of renal cystogenesis in Pkd1 knock-out autosomal dominant polycystic kidney disease mouse model assessed as reduction in kidney size at 5 mg/kg, sc administered once daily for 7 days compound pre-irradiated with light at 365 nm prior to administration; type: functional, organism-based; conditions: time 7.0 day
[22] = In vivo inhibition of renal cystogenesis in Pkd1 knock-out autosomal dominant polycystic kidney disease mouse model assessed as disease progression at 5 mg/kg, sc administered once daily for 7 days compound pre-irradiated with light at 365 nm prior to administration; type: functional; set-up: scale not given: the % may be the effect or the level left; conditions: time 7 day
[23] = target: T1, Vasopressin V2 receptor; assay: Antagonist activity at human vasopressin V2 receptor expressed in CHO cells assessed as inhibition of vasopressin induced cAMP production at 10 times Ki preincubated for 30 mins followed by two consecutive washouts and irradiated with light at 365 nm during two washouts; type: functional, cell-based; conditions: filed as antagonist
[24] = target: T1, Vasopressin V2 receptor; assay: Displacement of conivaptan-red fluorescent probe from SNAP-tagged human vasopressin V2 receptor expressed in HEK293 cells compound pre-illuminated for 10 mins with light at 365 nm and further incubated for 1 hr by HTRF assay; type: cell-based
[25] = Drug uptake in Sprague-Dawley rat kidney at 0.1 uM treated for 30 mins followed by extensive drug wash-out for 4 hrs by LC-MS analysis; type: ADME, tissue-based; conditions: in vivo, 0.5 h
[26] = target: T1, Vasopressin V2 receptor; assay: Displacement of conivaptan-red fluorescent probe from SNAP-tagged human vasopressin V2 receptor expressed in HEK293 cells at 10 uM compound pre-illuminated for 10 mins with light at 365 nm and further incubated for 1 hr by HTRF assay relative to control; type: cell-based; conditions: filed as antagonist
[27] = target: T1, Vasopressin V2 receptor; assay: (§5) Displacement of conivaptan-red fluorescent probe from SNAP-tagged human vasopressin V2 receptor expressed in HEK293 cells assessed as on-rate constant at 1 uM compound pre-illuminated for 10 mins with light at 435 nm by dual-point competition association assay; type: cell-based; conditions: filed as antagonist
[28] = target: T1, Vasopressin V2 receptor; assay: Displacement of conivaptan-red fluorescent probe from SNAP-tagged human vasopressin V2 receptor expressed in HEK293 cells assessed as residence time at 1 uM compound pre-illuminated for 10 mins with light at 435 nm by dual-point competition association assay; type: cell-based; conditions: filed as antagonist
[29] = target: Vasopressin V1a receptor (Homo sapiens) (UniProt P37288); assay: Displacement of [3H]vasopressin from human V1A receptor expressed in CHO cell membranes at 1 uM compound pre-illuminated for 10 mins with light at 435 nm by radioligand displacement assay relative to control; conditions: Membrane
[30] = tested on: Mus musculus; assay: In vivo inhibition of renal cystogenesis in Pkd1 knock-out autosomal dominant polycystic kidney disease mouse model assessed as reduction in kidney size at 5 mg/kg, sc administered once daily for 7 days compound pre-irradiated with light at 435 nm prior to administration; type: functional, organism-based; conditions: time 7.0 day
[31] = target: T1, Vasopressin V2 receptor; assay: as §5, with “kinetic rate index by measuring ratio of binding of labeled probe” for “on-rate constant”, “15 mins to 60 mins at IC50” for “1 uM”; type: cell-based; conditions: filed as antagonist
[32] = target: T1, Vasopressin V2 receptor; assay: Displacement of conivaptan-red fluorescent probe from SNAP-tagged human vasopressin V2 receptor expressed in HEK293 cells assessed as off-rate constant at 1 uM compound pre-illuminated for 10 mins with light at 435 nm by dual-point competition association assay; type: cell-based; conditions: filed as antagonist
[33] = In vivo inhibition of renal cystogenesis in Pkd1 knock-out autosomal dominant polycystic kidney disease mouse model assessed as disease progression at 5 mg/kg, sc administered once daily for 7 days compound pre-irradiated with light at 435 nm prior to administration; type: functional; set-up: scale not given: the % may be the effect or the level left; conditions: time 7 day

T1 sequence (P30518 whole entry): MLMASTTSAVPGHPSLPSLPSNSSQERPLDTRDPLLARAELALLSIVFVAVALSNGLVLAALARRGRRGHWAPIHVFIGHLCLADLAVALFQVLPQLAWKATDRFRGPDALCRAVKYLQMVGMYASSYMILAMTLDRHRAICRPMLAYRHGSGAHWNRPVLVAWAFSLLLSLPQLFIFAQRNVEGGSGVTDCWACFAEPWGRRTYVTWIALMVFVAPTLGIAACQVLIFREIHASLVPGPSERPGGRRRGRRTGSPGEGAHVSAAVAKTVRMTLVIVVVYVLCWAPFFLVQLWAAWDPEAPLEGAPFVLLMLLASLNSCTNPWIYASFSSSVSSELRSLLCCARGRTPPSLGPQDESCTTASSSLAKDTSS
Vasopressin V1a receptor (Homo sapiens), sequence (P37288 whole entry, looked up): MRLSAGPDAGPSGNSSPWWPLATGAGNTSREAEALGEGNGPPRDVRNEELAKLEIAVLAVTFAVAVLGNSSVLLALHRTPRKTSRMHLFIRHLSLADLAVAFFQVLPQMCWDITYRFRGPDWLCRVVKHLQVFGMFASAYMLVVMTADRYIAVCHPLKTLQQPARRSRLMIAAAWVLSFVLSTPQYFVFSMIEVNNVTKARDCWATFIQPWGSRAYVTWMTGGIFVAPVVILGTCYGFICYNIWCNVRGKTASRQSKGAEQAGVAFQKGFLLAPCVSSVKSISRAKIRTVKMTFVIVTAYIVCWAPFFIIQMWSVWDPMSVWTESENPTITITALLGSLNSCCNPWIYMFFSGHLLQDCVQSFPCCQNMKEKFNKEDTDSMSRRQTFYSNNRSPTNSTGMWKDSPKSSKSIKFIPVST

SMILES: Cc1cccc(/N=N/c2ccc(C(=O)N3Cc4cccn4Cc4ccccc43)c(Cl)c2)c1
- Ki [1]: 355 nM

SMILES: Cc1ccc(/N=N\c2ccc(C(=O)N3Cc4cccn4Cc4ccccc43)c(Cl)c2)cc1
- T1/2 [2]: 1.82 h
- inhibition [3]: inactive
- K [4]: 0.017 min⁻¹
- inhibition [5]: Active
- inhibition [6]: inactive
- inhibition [7]: Active
- inhibition [8]: Active
- Ratio [9]: 1.72
- inhibition [10]: Active
- inhibition [11]: inactive
- K [12]: 6.6 10^5/M/min
- inhibition [13]: inactive
- inhibition [14]: Active
- Activity [15]: Active
- inhibition [16]: < 40%
- inhibition [17]: Active
- inhibition [18]: inactive
- inhibition [19]: Active
- TIME [20]: 1.07 h
- inhibition [21]: Active
- Activity [22]: 14.6%
- inhibition [23]: Active
- Ki [24]: 40 nM
- Drug uptake [25]: 26 nM

SMILES: O=C(c1ccc(/N=N/c2ccc(F)cc2)cc1Cl)N1Cc2cccn2Cc2ccccc21
- Ki [1]: 851 nM

SMILES: Cc1ccccc1/N=N\c1ccc(C(=O)N2Cc3cccn3Cc3ccccc32)c(Cl)c1
- Ki [24]: 1240 nM

SMILES: O=C(c1ccc(/N=N\c2ccc(F)cc2)cc1Cl)N1Cc2cccn2Cc2ccccc21
- Ki [24]: 289 nM

Second part, led by results:

- Ki [24]: 787 nM
SMILES: O=C(c1ccc(/N=N\c2ccccc2-c2ccccc2)cc1Cl)N1Cc2cccn2Cc2ccccc21

- inhibition [26]: 51%
SMILES: O=C(c1ccc(/N=N\c2ccc(-c3ccccc3)cc2)cc1Cl)N1Cc2cccn2Cc2ccccc21

- Ki [1]: 279 nM
SMILES: O=C(c1ccc(/N=N/c2ccccc2-c2ccccc2)cc1Cl)N1Cc2cccn2Cc2ccccc21

- T1/2 [2]: 0.483 h
- K [27]: 1.1 10^5/M/min
- TIME [28]: 0.25 h
- inhibition [29]: < 40%
- Ratio [31]: 0.95
- inhibition [17]: Active
- Ki [1]: 281 nM
- inhibition [23]: Active
- K [32]: 0.068 min⁻¹
- Drug uptake [25]: 10 nM
SMILES: Cc1ccc(/N=N/c2ccc(C(=O)N3Cc4cccn4Cc4ccccc43)c(Cl)c2)cc1
- inhibition [30]: Active
- inhibition [19]: Active
- Activity [33]: 18.2%

- Ki [1]: 289 nM
SMILES: O=C(c1ccc(/N=N/c2ccccc2)cc1Cl)N1Cc2cccn2Cc2ccccc21
